Patent publication US8937091B2 (Japan Science and Technology Agency, priority 2009, dated 2015)

What was measured:
[1] = test system: IICR (IP3 induced calcium release) in CHO cells; assay: Assay of IICR (IP3 induced calcium release)-inhibiting action; format: cell-based, Chinese hamster; details: CHO cells, 10 μM ATP; for inhibition at 10 µM / inhibition at 30 µM / inhibition at 100 µM: Cricetulus griseus, CHO, read-out: IICR level (percentage of inhibition); for inhibition at 30 µM: test compound 30 μmol; for inhibition at 100 µM: test compound 100 μmol
Protocol: The extracellular fluid (i.e., medium) of cultured CHO cells was replaced by BSS containing calcium. One minute later, a test compound was added. Two minutes later, 10 μM ATP was added. The IICR-inhibiting action levels at different compound concentrations after the addition of ATP were determined as the percentage of inhibition (%) by evaluating the influence of the compound on the degree of increase in the intracellular calcium concentration.
(§1) Hereafter, the numerals in parentheses written after the TG level, the SOCE level, and the IICR level correspond to the test compound concentrations. The number following the name of each title compound used in the Examples below represents a compound ID number designated arbitrarily by the present inventors.

[2] = test system: SOCE (store operated calcium entry) in CHO cells; assay: Assay of SOCE (store operated calcium entry)-inhibiting action; format: cell-based, Chinese hamster; details: CHO cells, thapsigargin; for inhibition at 10 µM / inhibition at 30 µM / inhibition at 100 µM: Cricetulus griseus, CHO, read-out: SOCE level (percentage of inhibition)
Protocol: The extracellular fluid (i.e., medium) of cultured Chinese hamster ovary (CHO) cells was replaced by BSS containing no calcium. One minute later, a test compound was added. Two minutes later, 1 μM thapsigargin was added to cause depletion of the intracellular calcium store. Nine minutes later, calcium chloride (final concentration: 2 mM) was added to the extracellular fluid. The SOCE-inhibiting action levels at different compound concentrations after the addition of calcium chloride were determined as the percentage of inhibition (%) by evaluating the influence of the compound on the degree of increase in the intracellular calcium concentration.
as §1

SMILES | inhibition at 10 µM ([1]; test compound 10 μmol) | inhibition at 30 µM [1] | inhibition at 100 µM [1] | inhibition at 10 µM ([2]; test compound 10 μmol) | inhibition at 30 µM ([2]; test compound 30 μmol) | inhibition at 100 µM ([2]; test compound 100 μmol) | IICR level (percentage of inhibition) ([1]; test compound 10 μmol) | SOCE level (percentage of inhibition) ([2]; test compound 10 μmol) | SOCE level (percentage of inhibition) ([2]; test compound 30 μmol) | SOCE level (percentage of inhibition) ([2]; test compound 100 μmol)
CC(C)(C)N(CCO)CCC(=O)c1ccncc1 [Example 30, 2-(N-t-butyl-2-hydroxyethyl)aminoethyl-4-pyridylketone] | 20% | 10% | 10% | 0% | 0% | 0% | – | – | – | –
CN(CCC(=O)c1ccncc1)Cc1ccccc1 [Example 31, 2-(N-methylbenzyl)aminoethyl-4-pyridylketone] | 40% | 60% | 80% | 0% | 0% | 0% | – | – | – | –
CCCCN(CCO)CCC(=O)c1ccncc1 [Example 51, 2-(N-hydroxyethylbutyl)aminoethyl-4-pyridylketone] | 0% | 20% | 100% | 0% | 0% | 0% | – | – | – | –
CC(C)N(CCO)CCC(=O)c1ccsc1 [Example 56, 2-(hydroxyethylisopropyl)aminoethyl-3-thiophenylketone] | 0% | 0% | 50% | 0% | 0% | 0% | – | – | – | –
CC(C)N(CCC(=O)c1ccc(Cc2ccccc2)cc1)Cc1ccccc1 [Example 64, 2-(N-isopropylbenzyl)aminoethyl-4-benzylphenylketone] | – | 70% | 96% | – | – | – | 50% | 0% | 0% | 30%
Cc1ccc(C(=O)CCN(Cc2ccccc2)C(C)C)cc1 [Example 65, 2-(N-isopropylbenzyl)aminoethyl-4-methylphenylketone] | 30% | 10% | 30% | 0% | 0% | 30% | – | – | – | –
CC(C)N(CCC(=O)c1ccc2ccccc2c1)Cc1ccccc1 [Example 66, 2-(N-isopropylbenzyl)aminoethyl-2-naphthylketone] | 10% | 10% | 70% | 0% | 0% | 0% | – | – | – | –
C=CC(=O)c1cccc2ccccc12 [Example 68, 1-acryloylnaphthalene] | 80% | 90% | 95% | 0% | 10% | 70% | – | – | – | –
CC(C)N(CCC(=O)c1ccccc1)Cc1ccccc1 [Example 69, 2-(isopropylbenzyl)aminoethylphenylketone] | 20% | 20% | 90% | 0% | 10% | 20% | – | – | – | –
O=C(CCN(c1ccccc1)c1ccccc1)c1cccc2ccccc12 [Example 70, 2-N-diphenylaminoethyl naphthylketone] | 10% | 0% | 40% | 0% | 10% | 20% | – | – | – | –
CN(CCC(=O)c1ccc2ccccc2c1)Cc1ccccc1 [Example 71, 2-(N-methylbenzyl)aminoethyl naphthylketone] | 0% | – | – | 0% | 0% | – | – | – | – | –
COc1ccc(C(=O)CCN(Cc2ccccc2)C(C)C)cc1 [Example 72, 2-(N-isopropylbenzyl)aminoethyl-4-methoxyphenylketone] | 20% | 20% | 70% | 0% | 10% | 20% | – | – | – | –
CC(C)N(CCC(=O)c1ccccn1)Cc1ccccc1 [Example 73, 2-(N-isopropylbenzyl)aminoethyl-2-pyridylketone] | 70% | 100% | 90% | 0% | 0% | 10% | – | – | – | –
CN(CCC(=O)c1cccc2ccccc12)Cc1ccccc1 [Example 74, 2-(N-methylbenzyl)aminoethyl-1-naphthylketone] | 30% | 50% | 70% | 0% | 10% | 30% | – | – | – | –
O=C(CCN(c1ccccc1)c1ccccc1)c1ccc2ccccc2c1 [Example 75, 2-(N-diphenyl)aminoethyl-2-naphthylketone] | 0% | 0% | 0% | 0% | 0% | 0% | – | – | – | –
COc1ccc(C(=O)CCN(C)Cc2ccccc2)cc1 [Example 76, 2-(N-methylbenzyl)aminoethyl-4-methoxyphenylketone] | 0% | 10% | 30% | 0% | 10% | 20% | – | – | – | –
CN(CCC(=O)c1ccccn1)Cc1ccccc1 [Example 77, 2-(N-methylbenzyl)aminoethyl-2-pyridylketone] | 0% | 10% | 30% | 0% | 20% | 30% | – | – | – | –
Cc1cccc2cc(C(=O)CCN(C)Cc3ccccc3)ccc12 [Example 78, 2-(N-methylbenzyl)aminoethyl-5-methyl-2-naphthylketone] | 20% | 70% | 90% | 10% | 20% | 50% | – | – | – | –
Cc1cccc2cc(C(=O)CCN(Cc3ccccc3)C(C)C)ccc12 [Example 79, 2-(N-isopropylbenzyl)aminoethyl-5-methyl-2-naphthylketone] | 70% | 90% | 90% | 10% | 30% | 70% | – | – | – | –
Cc1cccc2cc(C(=O)CCN(c3ccccc3)c3ccccc3)ccc12 [Example 80, 2-(N-diphenyl)aminoethyl-5-methyl-2-naphthylketone] | 10% | 50% | 90% | 10% | 30% | 50% | – | – | – | –
Cc1cccc2cc(C(=O)CCN3CCCCC3)ccc12 [Example 81, 2-piperidinoethyl-5-methyl-2-naphthylketone] | 0% | 10% | 30% | 0% | 10% | 40% | – | – | – | –
CC(C)N(CCC(=O)c1cccc2ccccc12)Cc1ccccc1 [Example 82, 1-(N-benzylisopropyl)aminoethyl-1-naphthylketone] | 50% | 70% | 100% | 0% | 0% | 20% | – | – | – | –
